Test results taken from patent publication US11919902B2, “Aryl-bipyridine amine derivatives as phosphatidylinositol phosphate kinase inhibitors” (HiberCell, Inc., priority 2017, dated 2024).

Tests used:
[1] = biological target: T1, PIP4K2A (full length protein, SignalChem) (Homo sapiens, UniProt P48426); experiment: Kinase Assay PIP4K2 A (Sprint); ADP-Glo biochemical assay; details: Table 2; compounds listed under IC50 range headings
T1 construct: 4 nM PIP4K2A (full length protein, SignalChem); purchased SignalChem
T1 sequence (P48426 1-406): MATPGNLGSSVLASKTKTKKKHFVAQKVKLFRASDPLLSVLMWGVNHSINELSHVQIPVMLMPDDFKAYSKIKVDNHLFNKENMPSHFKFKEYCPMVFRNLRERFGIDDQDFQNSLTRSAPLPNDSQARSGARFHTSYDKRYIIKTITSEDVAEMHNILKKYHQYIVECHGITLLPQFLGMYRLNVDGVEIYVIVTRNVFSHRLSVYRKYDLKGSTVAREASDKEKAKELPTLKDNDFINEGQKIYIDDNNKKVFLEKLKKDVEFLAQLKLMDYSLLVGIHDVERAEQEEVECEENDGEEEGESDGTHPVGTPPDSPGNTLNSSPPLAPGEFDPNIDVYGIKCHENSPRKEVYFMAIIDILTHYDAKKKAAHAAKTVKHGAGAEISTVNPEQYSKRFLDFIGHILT
Method in brief: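 Compounds (10-point, 3-fold dilutions) were pre-incubated 15 min at RT with an enzyme/substrate mix of 4 nM full-length PIP4K2A and 100 μM PI(5)P diC8 in 20 mM MOPS pH 7.2, 25 mM MgCl2, 0.005% Tween 20. A 60 μM ATP solution was added, reaction 1 h RT; ADP read by ADP-Glo luminescence, IC50 fitted from % inhibition vs DMSO.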

[2] = biological target: T2, GST tagged PIP4KtypeIIB (Homo sapiens, UniProt P78356); experiment: Trans-FI P kinase assay PIP4K2B (PIP4KtypeIIB inhibition assay); assay type: biochemical; details: Table 4; compounds listed under IC50 range headings; 100 uM GTP, 5 nM PIP4KIIB; read-out: Trans-FI P kinase assays: PIP4K2B IC50
T2 construct: made in house; host or cells: E. coli
T2 sequence (P78356 1-416): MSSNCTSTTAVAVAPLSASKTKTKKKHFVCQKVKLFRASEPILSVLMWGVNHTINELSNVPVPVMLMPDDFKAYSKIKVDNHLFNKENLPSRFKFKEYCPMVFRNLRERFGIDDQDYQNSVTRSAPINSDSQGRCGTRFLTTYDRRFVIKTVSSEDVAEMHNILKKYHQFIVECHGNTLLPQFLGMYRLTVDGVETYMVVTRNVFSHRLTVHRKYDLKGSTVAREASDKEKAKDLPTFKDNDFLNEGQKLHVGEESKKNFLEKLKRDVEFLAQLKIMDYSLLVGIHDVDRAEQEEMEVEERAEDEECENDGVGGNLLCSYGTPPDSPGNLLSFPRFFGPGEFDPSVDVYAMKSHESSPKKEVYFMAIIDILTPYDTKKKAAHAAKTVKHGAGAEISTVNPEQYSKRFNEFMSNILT
Method in brief: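 Purified GST-PIP4KIIB (5 nM final), 1 h preincubation with compound at 27 C, then 2 h reaction with 100 uM GTP and 80 uM PI5P plus DOPE carrier lipid in pH 7.3 HEPES/MgCl2/Triton buffer with 5% DMSO. GDP read by Transcreener FI fluorescence against a calibration curve; IC50 from % no-inhibitor activity vs log concentration.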

| IC50 [1] [nM] | IC50 [2] [nM] | SMILES |
| --- | --- | --- |
| 100 to 1000 | 100 to 1000 | CN1CCn2c(cc3c(-c4cncc(-c5ccc(N6CCCS6(=O)=O)cc5)c4)ccnc32)C1=O [Example 386, 4-(5-(4-(1,1-dioxidoisothiazolidin-2-yl)phenyl)pyridin-3-yl)-7-methyl-8,9-dihydropyrido[3′,2′:4,5]pyrrolo[1,2-a]pyrazin-6(7H)-one] |
| 100 to 1000 | 10 to 100 | CN1CCn2c(cc3c(-c4cncc(-c5ccc(-c6nncn6CCC6CC6)cc5)c4)ccnc32)C1=O [Example 369] |
| 100 to 1000 | 10 to 100 | CC(C)n1cnnc1-c1ccc(-c2cncc(-c3ccnc4[nH]c(C(=O)NCCc5ccncc5)cc34)c2)cc1 [Example 371, 4-(5-(4-(4-isopropyl-4H-1,2,4-triazol-3-yl)phenyl)pyridin-3-yl)-N-(2-(pyridin-4-yl)ethyl)-1H-pyrrolo[2,3-b]pyridine-2-carboxamide] |
| 5 to 100 | 10 to 100 | Cc1nc(CNC(=O)c2cc3c(-c4cncc(-c5ccc(N6CCCC6=O)cc5)c4)ccnc3[nH]2)oc1C [Example 390] |
| 100 to 1000 | 1 to 10 | CC(C)n1nnnc1-c1ccc(-c2cncc(-c3ccnc4c3cc3n4CCN(C)C3=O)c2)cc1 [Example 387, 4-(5-(4-(1-isopropyl-1H-tetrazol-5-yl)phenyl)pyridin-3-yl)-7-methyl-8,9-dihydropyrido[3′,2′:4,5]pyrrolo[1,2-a]pyrazin-6(7H)-one] |
| 100 to 1000 | 1 to 10 | CC(C)n1cnnc1-c1ccc(-c2cc(-c3ccnc4oc(C(=O)NCC5CC5)cc34)cnc2N)cc1 [Example 392, 4-(6-amino-5-(4-(4-isopropyl-4H-1,2,4-triazol-3-yl)phenyl)pyridin-3-yl)-N-(cyclopropylmethyl)furo[2,3-b]pyridine-2-carboxamide] |
| 2500 to 5000 | 1 to 10 | CC(C)Cn1cnnc1-c1ccc(-c2cncc(-c3ccnc4c3cc3n4CCN(c4ccccn4)C3=O)c2)cc1 [Example 367, 4-(5-(4-(4-isobutyl-4H-1,2,4-triazol-3-yl)phenyl)pyridin-3-yl)-7-(pyridin-2-yl)-8,9-dihydropyrido[3′,2′:4,5]pyrrolo[1,2-a]pyrazin-6(7H)-one] |
| 5 to 100 | 1 to 10 | CC(C)c1cnnn1-c1ccc(-c2cncc(-c3ccnc4c3cc3n4CCN(C)C3=O)c2)cc1 [Example 368, 4-(5-(4-(5-isopropyl-1H-1,2,3-triazol-1-yl)phenyl)pyridin-3-yl)-7-methyl-8,9-dihydropyrido[3′,2′:4,5]pyrrolo[1,2-a]pyrazin-6(7H)-one] |
| 1000 to 2500 | 10 to 100 | CC(C)Cn1cnnc1-c1ccc(-c2cncc(-c3ccnc4[nH]c(C(=O)NCCc5ccncc5)cc34)c2)cc1 [Example 396, 4-(5-(4-(4-isobutyl-4H-1,2,4-triazol-3-yl)phenyl)pyridin-3-yl)-N-(2-(pyridin-4-yl)ethyl)-1H-pyrrolo[2,3-b]pyridine-2-carboxamide] |

Further lines, the compound ahead of its results:

| SMILES | IC50 [1] [nM] | IC50 [2] [nM] |
| --- | --- | --- |
| CC(=O)Nc1ccc(-c2cn(C)c3ncc(-c4cncc(-c5ccc(N6CCCC6=O)cc5)c4)cc23)cn1 [Example 343, N-(5-(1-methyl-5-(5-(4-(2-oxopyrrolidin-1-yl)phenyl)pyridin-3-yl)-1H-pyrrolo[2,3-b]pyridin-3-yl)pyridin-2-yl)acetamide] | 5 to 100 | 100 to 1000 |
| Cc1cccc2[nH]c(CNC(=O)c3cc4c(-c5cncc(-c6ccc(N7CCCC7=O)cc6)c5)ccnc4[nH]3)nc12 [Example 317, N-((4-methyl-1H-benzo[d]imidazol-2-yl)methyl)-4-(5-(4-(2-oxopyrrolidin-1-yl)phenyl)pyridin-3-yl)-1H-pyrrolo[2,3-b]pyridine-2-carboxamide] | < 5000 | 10 to 100 |
| C[C@@H]1CCC(=O)N1c1ccc(-c2cncc(-c3ccnc4c3cc3n4CCN(C)C3=O)c2)cc1 [Example 306, (R)-7-methyl-4-(5-(4-(2-methyl-5-oxopyrrolidin-1-yl)phenyl)pyridin-3-yl)-8,9-dihydropyrido[3′,2′:4,5]pyrrolo[1,2-a]pyrazin-6(7H)-one] | 5 to 100 | 1 to 10 |
| O=C(NCc1nc2ccccc2s1)c1cc2c(-c3cncc(-c4ccc(N5CCCC5=O)cc4)c3)ccnc2[nH]1 [Example 319, N-(benzo[d]thiazol-2-ylmethyl)-4-(5-(4-(2-oxopyrrolidin-1-yl)phenyl)pyridin-3-yl)-1H-pyrrolo[2,3-b]pyridine-2-carboxamide] | 100 to 1000 | 10 to 100 |
| CN(C(=O)c1cc2c(-c3cncc(-c4ccc(N5CCCC5=O)cc4)c3)ccnc2[nH]1)c1ccccc1 [Example 311, N-methyl-4-(5-(4-(2-oxopyrrolidin-1-yl)phenyl)pyridin-3-yl)-N-phenyl-1H-pyrrolo[2,3-b]pyridine-2-carboxamide] | 1000 to 2500 | 100 to 1000 |
| CN1CCn2c(cc3c(-c4cncc(-c5ccc(C(=O)N6CCOCC6)cc5)c4)ccnc32)C1=O [Example 327, 7-methyl-4-(5-(4-(morpholine-4-carbonyl)phenyl)pyridin-3-yl)-8,9-dihydropyrido[3′,2′:4,5]pyrrolo[1,2-a]pyrazin-6(7H)-one] | 2500 to 5000 | 100 to 1000 |
| CNC(=O)c1cc2c(-c3cnc(N)c(-c4ccc(-c5nncn5C(C)C)cc4)c3)ccnc2o1 [Example 362, 4-(6-amino-5-(4-(4-isopropyl-4H-1,2,4-triazol-3-yl)phenyl)pyridin-3-yl)-N-methylfuro[2,3-b]pyridine-2-carboxamide] | 100 to 1000 | 10 to 100 |
| CN(C(=O)c1cc2c(-c3cncc(-c4ccc(N5CCCC5=O)cc4)c3)ccnc2[nH]1)c1cccnc1 [Example 310, N-methyl-4-(5-(4-(2-oxopyrrolidin-1-yl)phenyl)pyridin-3-yl)-N-(pyridin-3-yl)-1H-pyrrolo[2,3-b]pyridine-2-carboxamide] | 100 to 1000 | 100 to 1000 |
| COC(=O)c1cc2c(-c3cncc(-c4ccc(-c5nncn5C(C)C)cc4)c3)ccnc2[nH]1 [Example 211, methyl 4-(5-(4-(4-isopropyl-4H-1,2,4-triazol-3-yl)phenyl)pyridin-3-yl)-1H-pyrrolo[2,3-b]pyridine-2-carboxylate] | 5 to 100 | 1 to 10 |
| O=C(c1cc2c(-c3cncc(-c4ccc(N5CCCC5=O)cc4)c3)ccnc2[nH]1)N1CCCC(O)(C2CC2)C1 (stereo not shown) [Example 210, 1-(4-(5-(2-(3-cyclopropyl-3-hydroxypiperidine-1-carbonyl)-1H-pyrrolo[2,3-b]pyridin-4-yl)pyridin-3-yl)phenyl)pyrrolidin-2-one] | 100 to 1000 | 100 to 1000 |
| Cc1cc2nc(CNC(=O)c3cc4c(-c5cncc(-c6ccc(N7CCCC7=O)cc6)c5)ccnc4[nH]3)[nH]c2cc1C [Example 315, N-((5,6-dimethyl-1H-benzo[d]imidazol-2-yl)methyl)-4-(5-(4-(2-oxopyrrolidin-1-yl)phenyl)pyridin-3-yl)-1H-pyrrolo[2,3-b]pyridine-2-carboxamide] | 1000 to 2500 | 100 to 1000 |
| O=C(Nc1ccncc1)c1cc2c(-c3cncc(-c4ccc(N5CCCC5=O)cc4)c3)ccnc2[nH]1 [Example 314, 4-(5-(4-(2-oxopyrrolidin-1-yl)phenyl)pyridin-3-yl)-N-(pyridin-4-yl)-1H-pyrrolo[2,3-b]pyridine-2-carboxamide] | 1000 to 2500 | 10 to 100 |
| CN1CCn2c(cc3c(-c4cncc(-c5ccc(-c6nncn6C6CCC6)cc5)c4)ccnc32)C1=O [Example 365, 4-(5-(4-(4-cyclobutyl-4H-1,2,4-triazol-3-yl)phenyl)pyridin-3-yl)-7-methyl-8,9-dihydropyrido[3′,2′:4,5]pyrrolo[1,2-a]pyrazin-6(7H)-one] | 1000 to 2500 | 10 to 100 |
| Cc1c2n(c3nccc(-c4cncc(-c5ccc(-c6nncn6C6CCC6)cc5)c4)c13)CCN(c1ccccn1)C2=O [Example 356, 4-(5-(4-(4-cyclobutyl-4H-1,2,4-triazol-3-yl)phenyl)pyridin-3-yl)-5-methyl-7-(pyridin-2-yl)-8,9-dihydropyrido[3′,2′:4,5]pyrrolo[1,2-a]pyrazin-6(7H)-one] | < 5000 | 100 to 1000 |
